Experimental data taken from patent US20220211699A1 (priority 2019, published 2022).

How the values were obtained:
[1] = tested on: adult diabetic patients with painful distal symmetrical polyneuropathy; conditions: oral 50 or 100 mg/day; after 2 weeks of therapy; cited from earlier work
[2] = tested on: diabetic patients suffering from peripheral diabetic neuropathy; conditions: 100 mg/day in a divided dose; 6 diabetic patients; cited from earlier work
[3] = tested on: patients with diabetic neuropathy; assay: Clinical study, Brief Pain Inventory-Short Form (BPI-SF) pain self-assessment; format: in vivo; conditions: Group 3
Protocol: (§1) The clinical study was carried out on a population of 142 patients with diabetic neuropathy of both sexes and aged between 18 and 75 years. Patients were divided into three groups and submitted to a randomized, double blind, placebo-controlled, parallel-group clinical trial, with double-dummy modality for patients in group 2.
(§2) Group 1 was treated with 20 mg trazodone (10 drops of 6% trazodone hydrochloride solution) three times a day for 8 weeks, for a total of 60 mg a day.
(§3) Group 2 was treated with 10 mg trazodone (5 drops of 6% trazodone hydrochloride solution) three times a day for 8 weeks, for a total of 30 mg a day.
(§4) Group 3 was treated with placebo, 10 drops of an oral solution three times a day for 8 weeks.
(§5) During the ninth week, concluding the clinical trial, group 1 was treated with 10 mg trazodone three times daily for a total of 30 mg per day, while both group 2 and group 3 were treated with placebo.
The 6% trazodone hydrochloride solution contained trazodone hydrochloride (6%), macrogol (35%), propylene glycol (30%), citric acid (0.5%), sucrose (0.15%), sodium hydroxide (0.125%), propyl gallate (0.10%), disodium edetate (0.05%), and purified water as needed at 100 mL. The placebo solution is identical to trazodone solution, but without active ingredient.
Gabapentin was administered in an incremental dosage for all patients treated according to the dosage regimen shown in Table 1 below using capsules containing 100 mg, 300 mg and 400 mg of commercially available gabapentin (Neurontin®, Pfizer). The capsules contain lactose monohydrate, corn starch and talc as excipients, and E171 and […] color combinations.
At the beginning of treatment and at the end of each treatment week, the patients under treatment completed the Brief Pain Inventory-Short Form (BPI-SF), which includes a set of questions relating to pain self-assessment (Zelman D C, et al., “Validation of a modified version of the pain inventory brief for painful diabetic peripheral neuropathy”, J. Pain Symptom Manage. 2005 April; 29(4):401-10).
In particular, patients assessed the average pain intensity in the week prior to the assessment (issue 5) and at the time of the assessment (issue 6) on a scale from 0 to 10 where 0 represents “no pain” and 10 represents “more pain than you can imagine”.
At each visit the evaluations were collected and processed in order to determine the deviation from the average value obtained for each group at the beginning of the treatment. The results were collected in the following Tables 3 and 4, from which the graphs shown in FIGS. 1 and 2 were obtained, respectively.

[4] = tested on: patients with diabetic neuropathy; assay: Clinical study, SF-36 Mental Component Summary (MCS): positive risk of depression or anxiety; format: in vivo; conditions: Group 3
Protocol: as §1, §2, §3, §4, §5
Gabapentin was administered in an incremental dosage for all patients treated according to the dosage regimen shown in Table 1 below using capsules containing 100 mg, 300 mg and 400 mg of commercially available gabapentin (Neurontin®, Pfizer). […]
The results are expressed as a percentage of patients with a positive risk of depression or anxiety compared to the normal general population in which a normal value of […] is estimated.

[5] = Visit 1, placebo drops + gabapentin 300 mg/day
[6] = Visit 2, placebo drops + gabapentin 600 mg/day
[7] = Visit 3, placebo drops + gabapentin 900 mg/day
[8] = Visit 4, placebo drops + gabapentin 1200 mg/day
[9] = Visit 5, placebo drops + gabapentin 1800 mg/day
[10] = Visit 6, placebo drops + gabapentin 2400 mg/day
[11] = Visit 7, placebo drops + gabapentin 2400 mg/day
[12] = Visit 8, placebo drops + gabapentin 2400 mg/day
[13] = Visit 9, placebo drops + gabapentin
[14] = placebo drops + incremental gabapentin

## O=c1n(CCCN2CCN(c3cccc(Cl)c3)CC2)nc2ccccn12 [trazodone, 2-(3-[4-(3-chlorophenyl)piperazin-1-yl]propyl)-[1,2,4]triazole[4,3-a]pyridin-3(2H)-one]
[1]
  patients with complete relief: 22.6%
  patients with symptomatic relief: 61.3%
[2]
  effect in pain relief and numbness: good effect

## NCC1(CC(=O)O)CCCCC1 [gabapentin, 2-[1-(aminomethyl)cyclohexyl] acetic acid]
[3]; [5]
  Average pain assessment deviation from beginning of treatment (Visit 0), Question 5: −1.0
  Average pain assessment deviation from beginning of treatment (Visit 0), Question 6: −0.9
[3]; [6]
  Average pain assessment deviation from beginning of treatment (Visit 0), Question 5: −1.7
  Average pain assessment deviation from beginning of treatment (Visit 0), Question 6: −1.4
[3]; [7]
  Average pain assessment deviation from beginning of treatment (Visit 0), Question 5: −2.1
  Average pain assessment deviation from beginning of treatment (Visit 0), Question 6: −1.7
[3]; [8]
  Average pain assessment deviation from beginning of treatment (Visit 0), Question 5: −1.9
  Average pain assessment deviation from beginning of treatment (Visit 0), Question 6: −1.6
[3]; [9]
  Average pain assessment deviation from beginning of treatment (Visit 0), Question 5: −2.1
  Average pain assessment deviation from beginning of treatment (Visit 0), Question 6: −1.8
[3]; [10]
  Average pain assessment deviation from beginning of treatment (Visit 0), Question 5: −2.4
  Average pain assessment deviation from beginning of treatment (Visit 0), Question 6: −2.0
[3]; [11]
  Average pain assessment deviation from beginning of treatment (Visit 0), Question 5: −2.4
  Average pain assessment deviation from beginning of treatment (Visit 0), Question 6: −1.9
[3]; [12]
  Average pain assessment deviation from beginning of treatment (Visit 0), Question 5: −2.5
  Average pain assessment deviation from beginning of treatment (Visit 0), Question 6: −2.0
[3]; [13]
  Average pain assessment deviation from beginning of treatment (Visit 0), Question 5: −2.5
  Average pain assessment deviation from beginning of treatment (Visit 0), Question 6: −2.0
[3]; [14]
  Patients with 50% reduction (percentage of patients with a reduction of at least 50% compared to the initial value), question 5: 45.8%
  Sum deviations (sum of all the deviations obtained at each visit), question 5: −117.6
[4]; Visit 0 (beginning of treatment, baseline)
  percentage of patients with a positive risk of depression or anxiety: 38%
[4]; Visit 8 (end of treatment), placebo drops + incremental gabapentin
  percentage of patients with a positive risk of depression or anxiety: 29%
